# According to PubChem BioAssay (NCI):
#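 Growth conditions: 96-well plates. Treatment: test compound, 48 hours, 5 concentrations. Analysis: linear interpolation between bracketing concentrations; unreached endpoints set to highest concentration. Abbreviation: GI50, concentration required for 50% inhibition of growth. TGI is the concentration that stops growth completely.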
# Experiments:
# Experiment in all cases: NCI tumour cell line growth inhibition, 48 h
# [1] = tested on: 786-0 renal
# [2] = tested on: OVCAR-5 ovarian
# [3] = tested on: SK-OV-3 ovarian
# [4] = tested on: OVCAR-3 ovarian
# [5] = tested on: RPMI-8226 leukemia
# [6] = tested on: IGROV1 ovarian
# [7] = tested on: SNB-75 CNS
# [8] = tested on: UACC-257 melanoma
# [9] = tested on: NCI/ADR-RES ovarian
# [10] = tested on: LOX IMVI melanoma
# [11] = tested on: KM12 colon
# [12] = tested on: HCC-2998 colon
# [13] = tested on: SF-268 CNS
# [14] = tested on: UACC-62 melanoma
# [15] = tested on: T-47D breast
# [16] = tested on: SK-MEL-5 melanoma
# [17] = tested on: U251 CNS
# [18] = tested on: HL-60(TB) leukemia
# [19] = tested on: MDA-MB-435
# [20] = tested on: K-562 leukemia
# [21] = tested on: M14 melanoma
# [22] = tested on: ACHN renal
# [23] = tested on: NCI-H226 lung
# [24] = tested on: DU-145 prostate
# [25] = tested on: RXF 393 renal
# [26] = tested on: EKVX NSCLC
# [27] = tested on: MDA-MB-231 breast
# [28] = tested on: UO-31 renal
# [29] = tested on: SNB-19 CNS
# [30] = tested on: MALME-3M melanoma
# [31] = tested on: MCF7 breast
# [32] = tested on: CAKI-1 renal
# [33] = tested on: SW-620 colon
# [34] = tested on: A549 NSCLC
# [35] = tested on: HOP-62 NSCLC
# [36] = tested on: A498 renal
# [37] = tested on: HS 578T breast
# [38] = tested on: HT29 colon
# [39] = tested on: NCI-H522 lung
# [40] = tested on: MOLT-4 leukemia
# [41] = tested on: OVCAR-4 ovarian
# [42] = tested on: OVCAR-8 ovarian
# [43] = tested on: CCRF-CEM leukemia
# [44] = tested on: HCT-116 colon
# [45] = tested on: COLO 205 colon
# [46] = tested on: PC-3 prostate
# [47] = tested on: SK-MEL-2 melanoma
# [48] = tested on: HCT-15 colon
# [49] = tested on: SK-MEL-28 melanoma
# [50] = tested on: SN12C renal
# [51] = tested on: TK-10 renal
# [52] = tested on: SF-539 CNS
# [53] = tested on: SF-295 CNS
# [54] = tested on: BT-549 breast
# [55] = tested on: NCI-H460 lung
# [56] = tested on: HOP-92 NSCLC
# [57] = tested on: NCI-H23 lung
# [58] = tested on: SR leukemia
smiles,measurement,setting,value
COc1ccc2c(c1)c(-c1cc(N)n3nc(-c4cn(C)c5ccc(OC)cc45)cc3n1)cn2C,GI50,[1],1640 nM
same,TGI,[1],3.41 µM
same,GI50,[2],1840 nM
same,TGI,[2],3.58 µM
same,GI50,[3],2.14 µM
same,TGI,[3],4.31 µM
same,GI50,[4],1750 nM
same,TGI,[4],3.17 µM
same,GI50,[5],1780 nM
same,TGI,[5],6.15 µM
same,GI50,[6],2000 nM
same,TGI,[6],4.14 µM
same,GI50,[7],2130 nM
same,TGI,[7],6.27 µM
same,GI50,[8],1780 nM
same,TGI,[8],3.63 µM
same,GI50,[9],2070 nM
same,TGI,[9],4.52 µM
same,GI50,[10],2040 nM
same,TGI,[10],3.64 µM
same,GI50,[11],1850 nM
same,TGI,[11],3.51 µM
same,GI50,[12],1870 nM
same,TGI,[12],3.32 µM
same,GI50,[13],2030 nM
same,TGI,[13],4.4 µM
same,GI50,[14],1960 nM
same,TGI,[14],3.87 µM
same,GI50,[15],1700 nM
same,TGI,[15],3.5 µM
same,GI50,[16],1790 nM
same,TGI,[16],3.25 µM
same,GI50,[17],1820 nM
same,TGI,[17],3.49 µM
same,GI50,[18],1310 nM
same,TGI,[18],3.98 µM
same,GI50,[19],1910 nM
same,TGI,[19],3.74 µM
same,GI50,[20],392 nM
same,TGI,[20],> 100000 nM
same,GI50,[21],1740 nM
same,TGI,[21],3.42 µM
same,GI50,[22],1790 nM
same,TGI,[22],3.25 µM
same,GI50,[23],2060 nM
same,TGI,[23],4.25 µM
same,GI50,[24],1800 nM
same,TGI,[24],3.19 µM
same,GI50,[25],1870 nM
same,TGI,[25],3.57 µM
same,GI50,[26],1840 nM
same,TGI,[26],3.67 µM
same,GI50,[27],1840 nM
same,TGI,[27],3.49 µM
same,GI50,[28],1660 nM
same,TGI,[28],3.19 µM
same,GI50,[29],2500 nM
same,TGI,[29],6.69 µM
same,GI50,[30],1870 nM
same,TGI,[30],3.65 µM
same,GI50,[31],1250 nM
same,TGI,[31],2.74 µM
same,GI50,[32],1790 nM
same,TGI,[32],3.46 µM
same,GI50,[33],1020 nM
same,TGI,[33],2410 nM
same,GI50,[34],1700 nM
same,TGI,[34],3.31 µM
same,GI50,[35],1810 nM
same,TGI,[35],3.67 µM
same,GI50,[36],1840 nM
same,TGI,[36],3.68 µM
same,GI50,[37],2570 nM
same,TGI,[37],6.67 µM
same,GI50,[38],1730 nM
same,TGI,[38],3.14 µM
same,GI50,[39],1740 nM
same,TGI,[39],3.41 µM
same,GI50,[40],1950 nM
same,TGI,[40],4.88 µM
same,GI50,[41],2040 nM
same,TGI,[41],4.27 µM
same,GI50,[42],1750 nM
same,TGI,[42],3.29 µM
same,GI50,[43],436 nM
same,TGI,[43],7.46 µM
same,GI50,[44],1500 nM
same,TGI,[44],3.1 µM
same,GI50,[45],1700 nM
same,TGI,[45],3.19 µM
same,GI50,[46],1840 nM
same,TGI,[46],3.93 µM
same,GI50,[47],1830 nM
same,TGI,[47],3.46 µM
same,GI50,[48],1150 nM
same,TGI,[48],2780 nM
same,GI50,[49],1850 nM
same,TGI,[49],3.46 µM
same,GI50,[50],2020 nM
same,TGI,[50],3.98 µM
same,GI50,[51],1810 nM
same,TGI,[51],3.6 µM
same,GI50,[52],1780 nM
same,TGI,[52],3.27 µM
same,GI50,[53],1880 nM
same,TGI,[53],3.44 µM
same,GI50,[54],3230 nM
same,TGI,[54],12 µM
same,GI50,[55],1790 nM
same,TGI,[55],3.52 µM
same,GI50,[56],1880 nM
same,TGI,[56],4.25 µM
COC[C@]12CC[C@@H](C)[C@H](C)[C@H]1C1=CC[C@@H]3[C@@]4(C)CCCNC(C)(C)[C@@H]4CC[C@@]3(C)[C@]1(C)CC2,GI50,[1],1690 nM
same,TGI,[1],3.21 µM
same,GI50,[2],1810 nM
same,TGI,[2],3.32 µM
same,GI50,[3],5.13 µM
same,TGI,[3],19.8 µM
same,GI50,[4],1830 nM
same,TGI,[4],3.29 µM
same,GI50,[5],2190 nM
same,TGI,[5],5.19 µM
same,GI50,[57],1800 nM
same,TGI,[57],3.62 µM
same,GI50,[7],1770 nM
same,TGI,[7],4.77 µM
same,GI50,[8],2050 nM
same,TGI,[8],4.46 µM
same,GI50,[9],1780 nM
same,TGI,[9],3.57 µM
same,GI50,[10],1130 nM
same,TGI,[10],2.49 µM
same,GI50,[11],1860 nM
same,TGI,[11],3.43 µM
same,GI50,[12],1760 nM
same,TGI,[12],3.38 µM
same,GI50,[13],1920 nM
same,TGI,[13],3.74 µM
same,GI50,[14],1710 nM
same,TGI,[14],3.19 µM
same,GI50,[15],1870 nM
same,TGI,[15],4.39 µM
same,GI50,[16],1710 nM
same,TGI,[16],3.11 µM
same,GI50,[17],1720 nM
same,TGI,[17],3.43 µM
same,GI50,[18],1280 nM
same,TGI,[18],3.05 µM
same,GI50,[19],1650 nM
same,TGI,[19],3.11 µM
same,GI50,[20],1050 nM
same,TGI,[20],2810 nM
same,GI50,[21],1770 nM
same,TGI,[21],3.57 µM
same,GI50,[22],1780 nM
same,TGI,[22],3.22 µM
same,GI50,[24],1930 nM
same,TGI,[24],3.41 µM
same,GI50,[25],1540 nM
same,TGI,[25],3.02 µM
same,GI50,[26],1700 nM
same,TGI,[26],3.42 µM
same,GI50,[27],1810 nM
same,TGI,[27],3.4 µM
same,GI50,[28],1570 nM
same,TGI,[28],3.2 µM
same,GI50,[30],1740 nM
same,TGI,[30],3.61 µM
same,GI50,[31],1540 nM
same,TGI,[31],3.37 µM
same,GI50,[32],1750 nM
same,TGI,[32],3.36 µM
same,GI50,[33],1800 nM
same,TGI,[33],3580 nM
same,GI50,[34],1800 nM
same,TGI,[34],3.77 µM
same,GI50,[35],1730 nM
same,TGI,[35],3.55 µM
same,GI50,[36],1510 nM
same,TGI,[36],3.38 µM
same,GI50,[37],2040 nM
same,TGI,[37],4.85 µM
same,GI50,[38],1580 nM
same,TGI,[38],3.26 µM
same,GI50,[58],1480 nM
same,TGI,[58],3.25 µM
same,GI50,[40],1300 nM
same,TGI,[40],3.03 µM
same,GI50,[42],2190 nM
same,TGI,[42],4.94 µM
same,GI50,[43],1670 nM
same,TGI,[43],4.2 µM
same,GI50,[44],1490 nM
same,TGI,[44],2.92 µM
same,GI50,[46],1490 nM
same,TGI,[46],3.38 µM
same,GI50,[48],1510 nM
same,TGI,[48],3160 nM
same,GI50,[49],1810 nM
same,TGI,[49],3.34 µM
same,GI50,[50],3090 nM
same,TGI,[50],11.8 µM
same,GI50,[51],1870 nM
same,TGI,[51],3.52 µM
same,GI50,[52],1600 nM
same,TGI,[52],3.03 µM
same,GI50,[53],1880 nM
same,TGI,[53],3.57 µM
same,GI50,[54],1800 nM
same,TGI,[54],3.6 µM
same,GI50,[55],1720 nM
same,TGI,[55],3.35 µM
same,GI50,[56],1540 nM
same,TGI,[56],4.36 µM
